Experimental data as given in ChEMBL document CHEMBL3351890, “Azapropellanes with anti-influenza a virus activity” (ACS Med Chem Lett, 2014).

Tests used:
[1] = system: Influenza A virus; test: Antiviral activity against Influenza A virus A/PR/8/34 (H1N1) infected in MDCK cells assessed as inhibition of virus-induced cytopathic effect; assay type: functional, organism-based; settings: A/Puerto Rico/8/1934(H1N1)
[2] = system: Influenza A virus; test: Antiviral activity against Influenza A virus A/PR/8/34 (H1N1) infected in MDCK cells assessed as cell viability by MTS assay; assay type: functional, organism-based; settings: A/Puerto Rico/8/1934(H1N1)
[3] = Antiviral activity against Influenza A virus A/HK/7/87 (H3N2) infected in MDCK cells assessed as inhibition of virus-induced cytopathic effect; assay type: functional, cell-based, Influenza A virus (A/Hong Kong/7/1987(H3N2))
[4] = Antiviral activity against Influenza A virus A/HK/7/87 (H3N2) infected in MDCK cells assessed as cell viability by MTS assay; assay type: functional, cell-based, Influenza A virus (A/Hong Kong/7/1987(H3N2))
[5] = molecular target: Matrix protein 2 (Influenza A virus) (UniProt P06821); test: Inhibition of influenza A virus wild type M2 proton channel expressed in Xenopus oocytes at 100 uM for 2 mins by two-electrode voltage clamp analysis; assay type: cell-based
[6] = Cytotoxicity against MDCK cells assessed as cell morphology by microscopical examination; assay type: cell-based, Canis lupus familiaris; settings: dog
[7] = Cytotoxicity against MDCK cells assessed as cell viability after 72 hrs by MTS assay; assay type: cell-based, Canis lupus familiaris; settings: dog

Sequence of Matrix protein 2 (Influenza A virus) (P06821 whole entry): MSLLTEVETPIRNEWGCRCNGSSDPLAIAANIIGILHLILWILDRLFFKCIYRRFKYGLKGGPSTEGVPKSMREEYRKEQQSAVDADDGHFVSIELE

SMILES	EC50 [1] [µM]	EC50 [2] [µM]	EC50 [3] [µM]	EC50 [4] [µM]	inhibition [5] [%]	MCC [6] [µM]	CC50 at 72 h [7] [µM]
C=C1CC23CCCC2(CNC3)C1 (stereo not given)	> 100	> 100	> 100	> 100	29.9	> 100	> 100
CC1CC23CNCC2(C1)CC(C)C3 (stereo not given)	24	20	> 100	> 100	58.7	> 100	> 100
C=C1CC23CNCC2(C1)CC(=C)C3 (stereo not given)	< 0.8	< 0.8	> 100	> 100	29.3	> 100	> 100
CC1=C(C)C[C@]23CNC[C@@]2(C1)CC(C)=C(C)C3	7	5.6	> 100	> 100		> 100	> 100
N=C(N)N1C[C@@]23CC=CC[C@@]2(CCC3)C1	> 100	> 100	> 100	> 100		> 100	> 100
C1=CC[C@]23CCCC[C@@]2(C1)CNC3	30	14	> 100	> 100	19.1	> 100	> 100
C1=CC[C@]23CC=CC[C@@]2(C1)CNC3	38	30	> 100	> 100		> 100	> 100
CC1CC23CC(C)CC2(C1)CN(C(=N)N)C3 (stereo not given)	2	1.6	> 100	> 100	8.8	> 100	> 20
C1=CC2C3C4C5C=CC4C24CNCC54C13	16		14			> 100	> 100
C=C1CC23CC(=C)CC2(C1)CN(C(=N)N)C3 (stereo not given)	> 100	> 100	> 100	> 100		16	20
C=C1CC23CC=CCC2(CNC3)C1 (stereo not given)	45	43	> 100	> 100	14.9	> 100	> 100
C1=CC[C@]23CCC[C@@]2(C1)CNC3	70	56	> 100	> 100		> 100	> 100
N=C(N)N1CC23CCCC2(CCC3)C1 (stereo not given)	> 100	> 100	> 100	> 100		54	100
C1CC23CCCC2(C1)CNC3 (stereo not given)	> 100	> 100	> 100	> 100	47.1	> 100	> 100
C1CC[C@]23CCCC[C@@]2(C1)CNC3	5.9	13	> 100	> 100		> 100	> 100
